From patent US9580390B2, “Indazole compounds as kinase inhibitors and method of treating cancer with same” (University Health Network, priority 2011, dated 2017)
pIC50: −log10 of the molar value.

Tests used:
[1] = target: T1, human PLK4 (Homo sapiens, UniProt O00444); assay: PLK4 inhibition assay (indirect ELISA); type: biochemical; conditions: 15 μM ATP
T1 construct: amino terminal GST fusion of residues 1-391 of human PLK4; made in house; host or cells: E. coli
T1 sequence (O00444 1-391): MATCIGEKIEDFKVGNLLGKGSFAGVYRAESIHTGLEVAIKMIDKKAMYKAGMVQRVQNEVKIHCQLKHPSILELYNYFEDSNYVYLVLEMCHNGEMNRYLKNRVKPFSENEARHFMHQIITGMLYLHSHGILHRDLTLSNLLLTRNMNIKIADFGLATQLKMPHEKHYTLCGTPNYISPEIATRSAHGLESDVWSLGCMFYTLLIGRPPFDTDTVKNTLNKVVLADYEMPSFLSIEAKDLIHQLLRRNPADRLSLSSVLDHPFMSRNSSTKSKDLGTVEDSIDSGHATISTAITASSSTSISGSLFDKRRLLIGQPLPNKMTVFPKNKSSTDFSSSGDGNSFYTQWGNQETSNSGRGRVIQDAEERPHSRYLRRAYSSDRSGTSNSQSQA
How it was run: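 Dephosphorylated GST-PLK4 (residues 1-391, E. coli; 4 nM) was preincubated 15 min with compound, then reacted 30 min with 15 μM ATP in HEPES pH 7.4, MgCl2, Brij 35 on MBP-coated plates. Phospho-MBP was detected by antibody/HRP ELISA at 450 nm; IC50 from 10-point titration by 4-parameter logistic fit, or single 10 μM % inhibition.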

[2] = target: T2, MELK (Homo sapiens, UniProt Q14680); assay: Panel of 270 human kinases (Millipore); type: biochemical
T2 construct: purchased Millipore Corporation
Procedure: The inhibitory activity of selected compounds of the invention (A335, A405, A410, A261, A300 and A363) was evaluated against a panel of 270 different human kinase enzymes by Millipore Corporation. The % Inhibition was determined by the formula: % Inhibition=100×(1−(experimental value−background value)/(high activity control−background value)).

[3] = target: T3, human TTK (Homo sapiens, UniProt P33981); assay: TTK inhibition assay (indirect ELISA); type: biochemical; conditions: read-out: TTK IC50 Range
T3 construct: amino terminal GST fusion of full length human TTK; purchased Invitrogen
T3 sequence (P33981 1-857): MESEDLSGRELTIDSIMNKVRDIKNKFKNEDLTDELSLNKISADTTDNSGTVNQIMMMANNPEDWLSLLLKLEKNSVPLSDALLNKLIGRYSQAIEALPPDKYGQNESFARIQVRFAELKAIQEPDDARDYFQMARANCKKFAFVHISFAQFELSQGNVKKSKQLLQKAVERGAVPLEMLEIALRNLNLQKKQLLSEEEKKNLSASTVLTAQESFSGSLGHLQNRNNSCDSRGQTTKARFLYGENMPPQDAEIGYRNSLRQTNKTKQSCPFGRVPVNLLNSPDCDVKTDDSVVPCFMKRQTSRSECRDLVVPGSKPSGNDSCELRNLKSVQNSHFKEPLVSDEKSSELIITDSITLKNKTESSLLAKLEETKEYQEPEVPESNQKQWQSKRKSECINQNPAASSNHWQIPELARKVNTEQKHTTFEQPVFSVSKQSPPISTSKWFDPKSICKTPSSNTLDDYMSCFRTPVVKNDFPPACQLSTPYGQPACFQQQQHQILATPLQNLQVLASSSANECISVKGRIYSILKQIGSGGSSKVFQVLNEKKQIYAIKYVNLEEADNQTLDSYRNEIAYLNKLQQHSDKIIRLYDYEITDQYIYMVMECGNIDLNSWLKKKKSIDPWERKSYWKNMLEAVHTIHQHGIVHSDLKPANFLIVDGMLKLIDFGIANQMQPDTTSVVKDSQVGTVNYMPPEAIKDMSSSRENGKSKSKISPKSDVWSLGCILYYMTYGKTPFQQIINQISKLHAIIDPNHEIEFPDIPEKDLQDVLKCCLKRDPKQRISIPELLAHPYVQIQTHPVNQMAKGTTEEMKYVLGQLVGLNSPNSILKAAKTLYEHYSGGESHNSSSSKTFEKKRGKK

[4] = test system: TICs (Colon 12); assay: Colon tumor-initiating cell growth inhibition (Alamar Blue); type: cell-based; conditions: 216 h; Colon 12 TICs, 9 days; read-out: Tumor Initiating Cell GI50 Range Colon 12
[5] = test system: colon cancer cells (HCT116); assay: Cancer cell line growth inhibition (SRB assay); type: cell-based; conditions: Homo sapiens, HCT-116; read-out: Cancer Cell Line GI50 Range HCT116
[6] = test system: ovarian cancer cells (PA-1); assay: Cancer cell line growth inhibition (SRB assay); type: cell-based; conditions: Homo sapiens, PA-1; read-out: Cancer Cell Line GI50 Range PA-1
[7] = test system: Breast cancer cells; assay: Cancer cell line growth inhibition (SRB assay); type: cell-based; conditions: Homo sapiens; MDA-MB-468; read-out: Cancer Cell Line GI50 Range MDA-MB-468
[8] = test system: TICs (Ovarian 2393A); assay: Ovarian tumor-initiating cell growth inhibition (Alamar Blue); type: cell-based; conditions: 144 h; Ovarian 2393A TICs, 6 days; read-out: Tumor Initiating Cell GI50 Range Ovarain 2393A

T2 sequence (Q14680 whole entry): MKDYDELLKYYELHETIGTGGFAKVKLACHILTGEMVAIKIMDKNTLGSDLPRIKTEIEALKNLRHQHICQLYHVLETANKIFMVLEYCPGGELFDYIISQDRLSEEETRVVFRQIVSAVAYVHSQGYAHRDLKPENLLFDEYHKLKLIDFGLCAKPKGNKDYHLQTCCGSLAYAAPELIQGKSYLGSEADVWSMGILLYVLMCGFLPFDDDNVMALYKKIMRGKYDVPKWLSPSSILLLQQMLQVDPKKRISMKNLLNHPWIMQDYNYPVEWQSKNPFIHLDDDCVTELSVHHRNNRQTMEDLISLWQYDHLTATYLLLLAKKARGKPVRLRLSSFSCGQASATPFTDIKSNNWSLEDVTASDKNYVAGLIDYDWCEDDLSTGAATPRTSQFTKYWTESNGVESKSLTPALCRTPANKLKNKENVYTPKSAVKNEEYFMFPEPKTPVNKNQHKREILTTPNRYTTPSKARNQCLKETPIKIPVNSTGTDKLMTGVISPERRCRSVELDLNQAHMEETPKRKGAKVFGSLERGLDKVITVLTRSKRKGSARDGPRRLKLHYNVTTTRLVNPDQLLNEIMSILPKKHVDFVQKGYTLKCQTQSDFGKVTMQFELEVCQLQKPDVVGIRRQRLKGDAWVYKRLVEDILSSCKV

Structure (SMILES)	pIC50 [1]	inhibition at 1 µM [2]	pIC50 [3]	GI50 [4]	GI50 [5]	GI50 [6]	GI50 [7]	GI50 [8]
CC(C)[C@H](NC(=O)c1ccc2[nH]nc(-c3ccc(OC4CC5CCC(C4)N5C4COC4)cc3)c2c1)c1ccccc1Cl (stereo partly shown) [Example A335]	> 7.30	97%	> 7.00	< 100 nM	< 100 nM	< 100 nM	100 to 500 nM	< 100 nM
CC(C)C[C@@H](NC(=O)c1ccc2[nH]nc(-c3ccc(N4CCN(C5COC5)CC4)cc3)c2c1)c1ccccc1Cl [Example A300, (R)-N-(1-(2-chlorophenyl)-3-methylbutyl)-3-(4-(4-(oxetan-3-yl)piperazin-1-yl)phenyl)-1H-indazole-5-carboxamide]	> 7.30	51%	> 7.00	< 100 nM	< 100 nM	< 100 nM	< 100 nM	100 to 500 nM
